Results: publication PMC7651855 (ACS nano, 2019)
Bridges are numbered along the chain shown (N, C = ends). Where no end group is shown, it is not given here.

Test system: C57bl/6 mice
Type: in vivo, mouse
Conditions: n=3; for CNS accumulation of NA-HRP (result in words): biotin-peptide:NA-HRP complex, IP, 24 hours post-injection

Row | Sequence | CNS accumulation of NA-HRP (result in words) | NA-delivery to the forebrain (result in words) (peptide-neutravidin-HRP, 10 μg per mouse IP, 24 hours)
1 | SACHQSQSRMCGGG (disulfide 3-11 (inferred)) [TACL10] | trended toward significant CNS accumulation | 
2 | SACPLSKGKLCGGG (disulfide 3-11 (inferred)) [TACL08] |  | increased NA-delivery to the forebrain when compared against controls
3 | SACSQKNFTHCGGG (disulfide 3-11 (inferred)) [TACL06] | trended toward significant CNS accumulation | 
